Data on 9 compounds can be found in US20210253598A1, “ARYL ANNULATED MACROCYCLIC INDOLE DERIVATIVES” (priority 2017, published 2021).

Experiment [1] deals with SUDHL5. Put plainly: Induction of caspase-3/7 activity in SUDHL5 cells (Assay 4). It counts as cell-based. The note with it: Homo sapiens, SU-DHL-5, 3 h. In outline: (§1)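 Luminescent Caspase-Glo 3/7 read-out in SUDHL5 and SUDHL10 cells after 3 h compound exposure at 37 °C, followed by 1 h reagent incubation.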
The subject of experiment [2] is SUDHL10. The experiment is described as follows: Induction of caspase-3/7 activity in SUDHL10 cells (Assay 4). Format: cell-based. The note with it: Homo sapiens, SU-DHL10, 3 h. In outline: as §1
The next experiment deals with MCL-1 (Homo sapiens, UniProt Q07820, K194A/K197A/R201A). The experiment is described as follows: Protein-protein interaction assay MCL-1/Noxa BH3 peptide, TR-FRET (MCL-1 assay, Assay 1). It counts as binding. The note with it: MCL-1 Assay [M] (median), MBP-MCL-1 / Noxa BH3 peptide. A digest of the protocol: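 TR-FRET competition between compounds and a biotin-PEG Noxa BH3 tracer for 1 nM MBP-MCL-1 (residues 173-321). Incubation was 1 h at 22 °C in the dark, then overnight at 4 °C, in 50 mM Tris pH 7 buffer with KF and DTT, after a 10-min compound pre-equilibration. Normalized ratios were fitted with a 4-parameter Hill equation to give IC50.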
(TR-FRET usually uses a lanthanide donor and a delayed reading to cut background.)

In the next experiment the test system is A2780. Put plainly: Anti-proliferative effect in A2780 cells, CellTiter-Glo (Assay 7). Format: cell-based. To be noted: Homo sapiens, A2780, 72 h, several values per example. As for the experimental part:
(§2) Assessment of the Anti-Proliferative Effect of Compounds in Different Cell Lines
(§3) The impact of compounds on the proliferation of different cell lines was assessed using the CellTiter-Glo® Luminescent Cell Viability reagent from Promega (G7573).
(§4) In parallel, cells were plated in a reference (day 0) plate for time zero determination. Cells were incubated in a humidified incubator at 37° C. overnight.
(§5) Rim wells were excluded. The cells were incubated for 72 hours in a humidified incubator at 37° C. The day 0 plate was measured by adding 30 μL/well of CTG solution (CellTiter-Glo® Luminescent Cell Viability reagent, Promega G7573) to time zero wells in the reference plate followed by a 10 minutes incubation and luminescence reading at 0.1 ms. using the PHERAstar FS microplate reader (BMG Labtech).
(§6) After 72 hours incubation, the treated plates were measured in the same way as the day 0 plate mentioned above. The Bella DRC Master Sheet was used to calculate IC50s, with CI=day 0 values and C0=DMSO control values.

Experiment [3] has as its system SUDHL5. Put plainly: Induction of cytotoxicity in SUDHL5 cells, CellTiter-Glo (Assay 6). Format: cell-based. The note with it: Homo sapiens, SU-DHL-5, 5 h, SUDHL5, 5 hours incubation, median, read-out: Cytotox SUDHL5 [M] (median). A digest of the protocol: (§7)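 Run alongside apoptosis assays, this cytotoxicity measure used a 5-hour compound incubation at 37° C in humidified conditions, following overnight attachment. Cell viability was quantified by CellTiter-Glo luminescence.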
In general terms: ATP-based viability assays read luminescence as a measure of living cells.

In the next experiment the test system is MV-4-11. The experiment is described as follows: Anti-proliferative effect in MV-4-11 cells, CellTiter-Glo (Assay 7). Format: cell-based. To be noted: Homo sapiens, MV4-11, 72 h, several values per example. As for the experimental part:
as §2, §3, §4, §5, §6

Experiment [4] concerns SUDHL5. Put plainly: Anti-proliferative effect in SUDHL5 cells, CellTiter-Glo (Assay 7). Format: cell-based. The note with it: Homo sapiens, SU-DHL-5, 72 h. The method, then:
as §2, §3, §4, §5, §6

Experiment [5] has as its system SUDHL10. The experiment is described as follows: Induction of cytotoxicity in SUDHL10 cells, CellTiter-Glo (Assay 6). It counts as cell-based. To be noted: Homo sapiens, SU-DHL10, 5 h, SUDHL10, 5 hours incubation, median, read-out: Cytotox SUDHL10 [M] (median). In outline: as §7
Setting [6] is: SUDHL5, 3 hours treatment, Caspase-Glo 3/7, median, read-out: Caspase SUDHL5 [M] (median).
[7] abbreviates: SUDHL10, 3 hours treatment, Caspase-Glo 3/7, median, read-out: Caspase SUDHL10 [M] (median).
The mark [8] stands for this setting: A2780, 72 hours incubation, CellTiter-Glo, read-out: Antiproli A2780.
Where [9] appears, read: MV-4-11, 72 hours incubation, CellTiter-Glo, read-out: Antiproli MV-4-11.
[10] abbreviates: SUDHL5, 72 hours incubation, CellTiter-Glo, median, read-out: Antiproli SUDHL5 [M] (median).

Where a name gives a salt, the structure may show the parent alone. Read-outs that look alike come from different tables or passages of the source.

Sequence of MCL-1 (Q07820 173-321 K194A/K197A/R201A, looked up): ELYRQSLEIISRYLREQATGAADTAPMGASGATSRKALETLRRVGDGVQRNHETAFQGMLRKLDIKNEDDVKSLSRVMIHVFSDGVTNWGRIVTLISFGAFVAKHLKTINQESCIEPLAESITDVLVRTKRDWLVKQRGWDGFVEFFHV

Consider `Cc1c2c(nn1C)COCc1cccnc1Cn1c(C(=O)O)c(CCCOc3cccc4ccccc34)c3ccc(Cl)c-2c31` (racemic) [Example 39, (rac)-3-Chloro-4,5-dimethyl-17-[3-(naphthalen-1-yloxy)propyl]-5,7,9,14-tetrahydropyrazolo-[4′,3′:9,10]pyrido[3′,2′:3,4][1,6]oxazacycloundecino[8,7,6-hi]indole-16-carboxylic Acid], for which the results for the EC50 in the experiment with SUDHL5 [1] (setting [6]) and in the experiment with SUDHL10 [2] (setting [7]) were 3.7e-06 M and 5.7e-06 M, respectively. Further, the IC50 at MCL-1 is 1.6e-09 M; in the experiment with A2780 (setting [8]), greater than 3.3e-05 M; in the experiment on SUDHL5 [3] it was 3.3e-06 M; with MV-4-11 (setting [9]) it was 1.56e-05 M; with SUDHL5 [4] (setting [10]) it was 2.4e-06 M; with SUDHL10 [5], 6.7e-06 M.

In the case of `CCc1c2c(nn1C)COCc1ccccc1Cn1c(C(=O)O)c(CCCOC3CCCc4ccccc43)c3ccc(F)c-2c31` (racemic) [Example 92, (rac)-14-Ethyl-15-fluoro-13-methyl-1-(3-((1,2,3,4-tetrahydronaphthalen-1-yl)oxy)propyl)-4,9,11,13-tetrahydrobenzo[3,4]pyrazolo[4′,3′:9,10][1]oxa[6]azacycloundecino[8,7,6-hi]indole-2-carboxylic Acid], the EC50 is 1.5e-05 M with SUDHL5 [1] (setting [6]) and greater than 3.3e-05 M with SUDHL10 [2] (setting [7]). Besides, the IC50 was 1.8e-08 M at MCL-1; greater than 3.3e-05 M with A2780 (setting [8]); 8.1e-06 M in the experiment on SUDHL5 [3]; 6.15e-06 M in the experiment with MV-4-11 (setting [9]); greater than 3.3e-05 M with SUDHL5 [4] (setting [10]); greater than 3.3e-05 M in the experiment on SUDHL10 [5].

For `Cc1c2c(nn1C)CN(C)Cc1ccccc1Cn1c(C(=O)O)c(CCCOc3cccc4ccccc34)c3cccc-2c31` (racemic) [Example 14, (rac)-4,5,8-Trimethyl-17-[3-(naphthalen-1-yloxy)propyl]-7,8,9,14-tetrahydro-5H-indolo[1,7-bc]pyrazolo[4,3-e][2,8]benzodiazacycloundecine-16-carboxylic Acid], the EC50 in the experiment with SUDHL5 [1] (setting [6]) came to 2.7e-06 M; in the experiment on SUDHL10 [2] (setting [7]), 7.6e-06 M. Besides, the IC50 at MCL-1 turned out to be 5.2e-09 M; in the experiment on A2780 (setting [8]) it was 1.75e-05 M; in the experiment with SUDHL5 [3] it was 3e-06 M; in the experiment on MV-4-11 (setting [9]), 6.41e-06 M; in the experiment with SUDHL5 [4] (setting [10]), 3.4e-06 M; in the experiment on SUDHL10 [5] it was 7e-06 M.

For the compound `Cc1c2c(nn1C)CN(C(=O)NC1CCOCC1)Cc1ccccc1Cn1c(C(=O)O)c(CCCOc3cccc4ccccc34)c3cccc-2c31` (racemic) [Example 24, (rac)-4,5-Dimethyl-17-[3-(naphthalen-1-yloxy)propyl]-8-(tetrahydro-2H-pyran-4-ylcarbamoyl)-7,8,9,14-tetrahydro-5H-indolo[1,7-bc]pyrazolo[4,3-e][2,8]benzodiazacycloundecine-16-carboxylic Acid], the EC50 in the experiment on SUDHL5 [1] (setting [6]) and in the experiment on SUDHL10 [2] (setting [7]) was greater than 3.3e-05 M throughout. The IC50 against MCL-1 was 5.3e-08 M; with A2780 (setting [8]) it was greater than 3.3e-05 M; in the experiment on SUDHL5 [3], greater than 3.3e-05 M; with MV-4-11 (setting [9]), greater than 3.3e-05 M; in the experiment on SUDHL5 [4] (setting [10]), greater than 3.3e-05 M; with SUDHL10 [5], greater than 3.3e-05 M.

Regarding `Cc1c2c(nn1C)COCc1ccccc1Cn1c(C(=O)O)c(CCCOc3cccc4ccccc34)c3ccc(Cl)c-2c31` (racemic) [Example 36, (rac)-3-Chloro-4,5-dimethyl-17-[3-(naphthalen-1-yloxy)propyl]-5,7,9,14-tetrahydroindolo[7,1-fg]pyrazolo[3,4-d][2,8]benzoxazacycloundecine-16-carboxylic Acid], the EC50 stood at 2.4e-06 M in the experiment on SUDHL5 [1] (setting [6]) and 5.5e-06 M in the experiment on SUDHL10 [2] (setting [7]). In addition, the IC50 against MCL-1 is 3.2e-09 M; in the experiment with A2780 (setting [8]), 2.31e-05 M; with SUDHL5 [3], 3.8e-06 M; in the experiment on MV-4-11 (setting [9]), 1.38e-06 M; in the experiment on SUDHL5 [4] (setting [10]) it was 3.6e-06 M; in the experiment on SUDHL10 [5], 4.9e-06 M.

For `Cc1c2c(nn1C)COCc1ncccc1Cn1c(C(=O)O)c(CCCOc3cccc4ccccc34)c3ccc(Cl)c-2c31` (single isomer, unassigned; enantiomer 2) [Example 44, 3-Chloro-4,5-dimethyl-17-[3-(naphthalen-1-yloxy)propyl]-5,7,9,14-tetrahydropyrazolo-[4′,3′:9,10]pyrido[2′,3′:3,4][1,6]oxazacycloundecino[8,7,6-hi]indole-16-carboxylic acid-N-ethylethanamine Salt (Enantiomer 2)], the EC50 in the experiment on SUDHL5 [1] (read-out: Caspase SUDHL5 [M] (median), SUDHL5, 3 hours treatment, Caspase-Glo 3/7) stood at 7.8e-06 M; in the experiment on SUDHL10 [2] (read-out: Caspase SUDHL10 [M] (median), SUDHL10, 3 hours treatment, Caspase-Glo 3/7), 1.5e-05 M. For the same compound, the IC50 against MCL-1 is 5.2e-09 M; in the experiment with A2780 (read-out: Antiproli A2780 [M], A2780, 72 hours incubation, CellTiter-Glo), 2.37e-05 M; with SUDHL5 [3], 7.9e-06 M; with MV-4-11 (read-out: Antiproli MV-4-11 [M], MV-4-11, 72 hours incubation, CellTiter-Glo), 1.54e-05 M; in the experiment with SUDHL5 [4] (read-out: Antiproli SUDHL5 [M] (median), SUDHL5, 72 hours incubation, CellTiter-Glo), 5.7e-06 M; with SUDHL10 [5], 1.5e-05 M.

For the compound `COc1cc(CNC(=O)N2Cc3ccccc3Cn3c(C(=O)O)c(CCCOc4cccc5ccccc45)c4cccc(c43)-c3c(nn(C)c3C)C2)cc(OC)c1OC` (racemic) [Example 20, (rac)-4,5-Dimethyl-17-[3-(naphthalen-1-yloxy)propyl]-8-[(3,4,5-trimethoxybenzyl)carbamoyl]-7,8,9,14-tetrahydro-5H-indolo[1,7-bc]pyrazolo[4,3-e][2,8]benzodiazacycloundecine-16-carboxylic Acid], the EC50 with SUDHL5 [1] (setting [6]) and in the experiment with SUDHL10 [2] (setting [7]) was greater than 3.3e-05 M throughout. The IC50 is 1.8e-07 M on MCL-1; 1.37e-05 M in the experiment on A2780 (setting [8]); greater than 3.3e-05 M in the experiment with SUDHL5 [3]; 1.08e-05 M in the experiment with MV-4-11 (setting [9]); 1.2e-05 M with SUDHL5 [4] (setting [10]); greater than 3.3e-05 M in the experiment on SUDHL10 [5].

Regarding `Cc1c2c(nn1C)CN(S(=O)(=O)CCN1CCOCC1)Cc1ccccc1Cn1c(C(=O)O)c(CCCOc3cccc4ccccc34)c3cccc-2c31` (racemic) [Example 30, (rac)-4,5-Dimethyl-8-{[2-(morpholin-4-yl)ethyl]sulfonyl}-17-[3-(naphthalen-1-yloxy)propyl]-7,8,9,14-tetrahydro-5H-indolo[1,7-bc]pyrazolo[4,3-e][2,8]benzodiazacycloundecine-16-carboxylic Acid], the EC50 in the experiment with SUDHL5 [1] (setting [6]) was 8.5e-06 M; in the experiment with SUDHL10 [2] (setting [7]) it was greater than 3.3e-05 M. Further, the IC50 came to 3.7e-08 M at MCL-1; 1.71e-05 M with A2780 (setting [8]); 8.6e-06 M in the experiment with SUDHL5 [3]; 7.85e-06 M with MV-4-11 (setting [9]); 4.6e-06 M in the experiment on SUDHL5 [4] (setting [10]); 2.9e-05 M with SUDHL10 [5].

On to `Cc1nn(C)c2c1-c1c(F)ccc3c(CCCOc4ccc(F)c5ccccc45)c(C(=O)O)n(c13)Cc1ccccc1COC2` (racemic) [Example 82, (rac)-15-Fluoro-1-(3-((4-fluoronaphthalen-1-yl)oxy)propyl)-12,14-dimethyl-4,9,11,12-tetrahydrobenzo[3,4]pyrazolo[4′,3′:9,10][1]oxa[6]azacycloundecino[8,7,6-hi]indole-2-carboxylic Acid], for which the EC50 in the experiment with SUDHL5 [1] (setting [6]) was 2.2e-05 M; in the experiment with SUDHL10 [2] (setting [7]), greater than 3.3e-05 M. Further, the IC50 against MCL-1 is 1.2e-08 M; with A2780 (setting [8]) it was 2.85e-05 M; with SUDHL5 [3] it was 2.4e-05 M; in the experiment with MV-4-11 (setting [9]) it was 1.45e-05 M; with SUDHL5 [4] (setting [10]), 1e-05 M; in the experiment with SUDHL10 [5], greater than 3.3e-05 M.
